According to ChEMBL document CHEMBL1146318, “Synthesis and SAR of novel 2-arylthiazolidinones as selective analgesic N-type calcium channel blockers” (Bioorg Med Chem Lett, 2007):

Key:
[1] = species: Homo sapiens; experiment: Selectivity for calcium channel Cav2.2 over calcium channel L type
[2] = Inhibition of calcium channel L type in IMR32 cells; format: cell-based, Homo sapiens; conditions: imr-32
[3] = target: Voltage-dependent N-type calcium channel subunit alpha-1B (Homo sapiens, UniProt Q00975); experiment: Inhibition of calcium channel Cav2.2 in IMR32 cells; format: cell-based, IMR-32
Voltage-dependent N-type calcium channel subunit alpha-1B, sequence (Q00975 whole entry): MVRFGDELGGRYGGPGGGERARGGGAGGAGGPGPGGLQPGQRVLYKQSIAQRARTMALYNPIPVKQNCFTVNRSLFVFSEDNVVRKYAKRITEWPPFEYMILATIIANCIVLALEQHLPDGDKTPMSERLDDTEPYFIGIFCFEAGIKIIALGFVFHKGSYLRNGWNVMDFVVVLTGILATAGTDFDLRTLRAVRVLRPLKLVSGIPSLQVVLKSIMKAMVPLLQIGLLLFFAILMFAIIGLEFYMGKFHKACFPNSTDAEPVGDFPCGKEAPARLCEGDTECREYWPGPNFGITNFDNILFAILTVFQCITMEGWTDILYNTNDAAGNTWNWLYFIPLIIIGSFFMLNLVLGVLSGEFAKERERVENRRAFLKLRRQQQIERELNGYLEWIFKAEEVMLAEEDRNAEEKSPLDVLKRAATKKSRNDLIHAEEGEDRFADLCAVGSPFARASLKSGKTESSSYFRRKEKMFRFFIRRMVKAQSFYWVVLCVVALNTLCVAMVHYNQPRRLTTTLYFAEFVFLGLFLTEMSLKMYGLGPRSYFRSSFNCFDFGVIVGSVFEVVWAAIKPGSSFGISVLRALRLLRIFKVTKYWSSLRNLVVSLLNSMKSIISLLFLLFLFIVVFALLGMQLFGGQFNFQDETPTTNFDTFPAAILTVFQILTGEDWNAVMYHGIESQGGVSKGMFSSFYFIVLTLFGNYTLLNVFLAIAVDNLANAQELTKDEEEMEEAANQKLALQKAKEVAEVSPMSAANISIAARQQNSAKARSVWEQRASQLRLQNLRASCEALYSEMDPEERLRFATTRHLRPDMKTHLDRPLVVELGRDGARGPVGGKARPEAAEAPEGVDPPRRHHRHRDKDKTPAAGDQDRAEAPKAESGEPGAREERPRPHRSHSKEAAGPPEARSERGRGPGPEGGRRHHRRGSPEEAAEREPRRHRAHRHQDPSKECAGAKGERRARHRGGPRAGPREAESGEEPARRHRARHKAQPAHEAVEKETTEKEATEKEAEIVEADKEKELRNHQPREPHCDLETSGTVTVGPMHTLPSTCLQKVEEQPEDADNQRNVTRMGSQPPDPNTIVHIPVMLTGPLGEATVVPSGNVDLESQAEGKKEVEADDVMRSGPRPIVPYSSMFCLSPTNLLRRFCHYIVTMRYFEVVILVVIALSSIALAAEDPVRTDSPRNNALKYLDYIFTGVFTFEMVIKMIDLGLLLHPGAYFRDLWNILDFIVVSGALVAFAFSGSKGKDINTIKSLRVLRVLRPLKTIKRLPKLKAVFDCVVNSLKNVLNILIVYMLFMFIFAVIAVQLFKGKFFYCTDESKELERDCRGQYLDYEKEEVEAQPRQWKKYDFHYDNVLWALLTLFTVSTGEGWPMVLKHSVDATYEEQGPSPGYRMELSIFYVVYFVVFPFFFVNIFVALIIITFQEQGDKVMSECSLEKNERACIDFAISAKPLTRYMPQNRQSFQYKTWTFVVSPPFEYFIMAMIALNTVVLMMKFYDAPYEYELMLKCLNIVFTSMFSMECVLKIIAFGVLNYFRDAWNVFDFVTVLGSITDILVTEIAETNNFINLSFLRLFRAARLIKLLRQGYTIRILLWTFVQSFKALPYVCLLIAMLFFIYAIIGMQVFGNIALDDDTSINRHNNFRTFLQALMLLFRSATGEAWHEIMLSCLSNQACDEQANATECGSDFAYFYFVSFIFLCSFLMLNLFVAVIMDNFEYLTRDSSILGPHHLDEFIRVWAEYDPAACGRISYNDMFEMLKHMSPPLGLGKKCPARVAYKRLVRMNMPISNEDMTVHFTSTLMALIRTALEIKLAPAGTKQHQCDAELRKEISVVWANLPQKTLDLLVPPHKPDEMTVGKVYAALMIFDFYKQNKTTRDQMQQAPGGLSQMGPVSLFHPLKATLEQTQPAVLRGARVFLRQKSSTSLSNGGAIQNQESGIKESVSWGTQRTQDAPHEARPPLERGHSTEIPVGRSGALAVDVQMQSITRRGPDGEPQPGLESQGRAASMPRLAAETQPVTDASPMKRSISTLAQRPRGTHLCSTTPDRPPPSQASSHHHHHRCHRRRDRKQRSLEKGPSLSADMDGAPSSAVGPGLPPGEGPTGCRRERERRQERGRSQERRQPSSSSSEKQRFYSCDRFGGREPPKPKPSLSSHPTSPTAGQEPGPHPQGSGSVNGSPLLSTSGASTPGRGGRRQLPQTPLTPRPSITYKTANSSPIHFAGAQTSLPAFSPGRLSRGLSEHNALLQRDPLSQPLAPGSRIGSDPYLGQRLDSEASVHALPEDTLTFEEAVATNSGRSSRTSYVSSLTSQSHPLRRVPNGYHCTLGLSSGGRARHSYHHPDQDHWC

`O=C1CSC(c2ccc(F)c(Br)c2)N1CCc1ccccn1` (stereo unspecified) showed a Ratio IC50 [1] of 5.6, an IC50 [2] of 9.51 µM and an IC50 [3] of 1.68 µM.

With `CC(C)CN1C(=O)C[S+]([O-])C1c1cnccc1-c1ccc(Br)cc1` (stereo unspecified) the Ratio IC50 [1] was 3.8, the IC50 [2] was 15 µM and the IC50 [3] was 3.97 µM.

For `CC(C)CN1C(=O)CSC1c1ccncc1-c1ccc(Br)cc1` (stereo unspecified), the Ratio IC50 [1] was 6.1, the IC50 [2] was 3.08 µM and the IC50 [3] was 0.5 µM.

With `O=C1C[S+]([O-])C(c2ccc(F)c(Br)c2)N1CCc1ccccn1` (stereo unspecified) the IC50 [2] was > 30 µM and the IC50 [3] was 29.8 µM.

With `O=C1CSC(c2cnccc2-c2ccc(Br)cc2)N1C1CCCC1` (stereo unspecified) the Ratio IC50 [1] was 16.3, the IC50 [2] was 10.3 µM and the IC50 [3] was 0.63 µM.

With `O=C1CS(=O)(=O)C(c2ccc(F)c(Br)c2)N1CCc1ccccn1` (stereo unspecified) the IC50 [2] was > 30 µM and the IC50 [3] was 8.13 µM.

`CC(C)CN1C(=O)CSC1c1cccnc1-c1ccc(Cl)cc1` (stereo unspecified) showed a Ratio IC50 [1] of 5.9, an IC50 [2] of 7.49 µM and an IC50 [3] of 1.26 µM.

With `Cc1ccc(-c2cnccc2C2SCC(=O)N2CC(C)C)cc1` (stereo unspecified) the Ratio IC50 [1] was 13.6, the IC50 [2] was 8.03 µM and the IC50 [3] was 0.59 µM.

`CC(C)CN1C(=O)CSC1c1cnccc1-c1ccc(Cl)cc1` (stereo unspecified) showed a Ratio IC50 [1] of 3.6, an IC50 [2] of 2.18 µM and an IC50 [3] of 0.6 µM.

Work on `COc1ccc(CN2CCN(C(c3ccc(F)cc3)c3ccc(F)cc3)CC2)c(OC)c1OC` [LOMERIZINE] yielded a Ratio IC50 [1] of 0.6, an IC50 [2] of 1.48 µM and an IC50 [3] of 2.43 µM.

Work on `CC(C)CNC(=O)CC1SC(c2cccc(C(F)(F)F)c2)N(CCc2ccccn2)C1=O` (stereo unspecified) yielded a Ratio IC50 [1] of 1.6, an IC50 [2] of 2.08 µM and an IC50 [3] of 1.29 µM.

`CCC(C)N1C(=O)CSC1c1cnccc1-c1ccc(Br)cc1` (stereo unspecified) gave a Ratio IC50 [1] of 11.2, an IC50 [2] of 2.33 µM and an IC50 [3] of 0.21 µM.

`CC(C)CN1C(=O)CSC1c1cnccc1-c1ccccc1` (stereo unspecified) showed a Ratio IC50 [1] of 4.1, an IC50 [2] of 16.4 µM and an IC50 [3] of 3.98 µM.

Work on `C=Cc1ccc(-c2ccncc2C2SCC(=O)N2CC(C)C)cc1` (stereo unspecified) yielded a Ratio IC50 [1] of 19.5, an IC50 [2] of 9.99 µM and an IC50 [3] of 0.51 µM.

Compound `O=C1CSC(c2cccc(C(F)(F)F)c2)N1CCc1ccccn1` (stereo unspecified) has a Ratio IC50 [1] of 4.8, an IC50 [2] of 11.5 µM and an IC50 [3] of 2.41 µM.

Compound `Cc1ccc(-c2ccncc2C2SCC(=O)N2CC(C)C)cc1` (stereo unspecified) has a Ratio IC50 [1] of 16.7, an IC50 [2] of 8.2 µM and an IC50 [3] of 0.49 µM.

Compound `CC(C)CN1C(=O)CS[C@@H]1c1cnccc1-c1ccc(C(F)(F)F)cc1` (stereo in doubt; 59) [listing 1 of 2 here] has an IC50 [2] of 22.9 µM and an IC50 [3] of 0.77 µM.

`Cc1ccc(-c2ccncc2[C@H]2SCC(=O)N2CC(C)C)cc1` (stereo in doubt; 61) [listing 1 of 2 here] gave an IC50 [2] of 23.2 µM and an IC50 [3] of 0.73 µM.

Work on `CC(C)CN1C(=O)CSC1c1cnccc1-c1ccc(C(F)(F)F)cc1` (stereo unspecified) yielded a Ratio IC50 [1] of 9.6, an IC50 [2] of 10.3 µM and an IC50 [3] of 1.07 µM.

With `COc1ccc(-c2ncccc2C2SCC(=O)N2CC(C)C)cc1` (stereo unspecified) the Ratio IC50 [1] was 2.3, the IC50 [2] was 20.6 µM and the IC50 [3] was 8.93 µM.

For `CCc1ccc(-c2ccncc2C2SCC(=O)N2CC(C)C)cc1` (stereo unspecified), the Ratio IC50 [1] was 6.3, the IC50 [2] was 5.54 µM and the IC50 [3] was 0.88 µM.

Work on `COc1ccc(-c2cnccc2C2SCC(=O)N2CC(C)C)cc1` (stereo unspecified) yielded a Ratio IC50 [1] of 9.5, an IC50 [2] of 13.7 µM and an IC50 [3] of 1.4 µM.

`O=C1CSC(c2ccncc2-c2ccc(C(F)(F)F)cc2)N1C1CCCC1` (stereo unspecified) gave a Ratio IC50 [1] of 3.1, an IC50 [2] of 4.25 µM and an IC50 [3] of 1.37 µM.

For `CC(C)CN1C(=O)CSC1c1cccnc1-c1ccc(F)cc1` (stereo unspecified), the Ratio IC50 [1] was 2.6, the IC50 [2] was 12.9 µM and the IC50 [3] was 4.92 µM.

Compound `C=Cc1ccc(-c2ncccc2C2SCC(=O)N2CC(C)C)cc1` (stereo unspecified) has a Ratio IC50 [1] of 3.2, an IC50 [2] of 4.23 µM and an IC50 [3] of 1.33 µM.

`O=C1CSC(c2cnccc2-c2ccc(Br)cc2)N1C1CCCCC1` (stereo unspecified) gave a Ratio IC50 [1] of 1.5, an IC50 [2] of 2.01 µM and an IC50 [3] of 1.32 µM.

Work on `CC(C)CN1C(=O)CSC1c1ccncc1-c1ccc(Cl)cc1` (stereo unspecified) yielded a Ratio IC50 [1] of 7.9, an IC50 [2] of 4.58 µM and an IC50 [3] of 0.58 µM.

Work on `Cc1ccc(-c2ccncc2[C@H]2SCC(=O)N2CC(C)C)cc1` (stereo in doubt; 60) [listing 1 of 2 here] yielded an IC50 [2] of 12.9 µM and an IC50 [3] of 4.44 µM.

`CC(C)CN1C(=O)CSC1c1cccnc1-c1ccc(C(F)(F)F)cc1` (stereo unspecified) gave a Ratio IC50 [1] of 9.7, an IC50 [2] of 5.44 µM and an IC50 [3] of 0.56 µM.

In the case of `C=Cc1ccc(-c2cnccc2C2SCC(=O)N2CC(C)C)cc1` (stereo unspecified), the Ratio IC50 [1] is reported as 7.8, the IC50 [2] is reported as 4.16 µM and the IC50 [3] is reported as 0.53 µM.

`CC(C)CN1C(=O)CSC1c1cccnc1-c1ccc(Br)cc1` (stereo unspecified) gave a Ratio IC50 [1] of 8.9, an IC50 [2] of 6.2 µM and an IC50 [3] of 0.7 µM.

For `CC(C)CN1C(=O)CSC1c1cnccc1-c1ccc(F)cc1` (stereo unspecified), the Ratio IC50 [1] was 5.2, the IC50 [2] was 6.66 µM and the IC50 [3] was 1.29 µM.

Compound `CC(C)CN1C(=O)CS[C@@H]1c1cnccc1-c1ccc(C(F)(F)F)cc1` (stereo in doubt; 59) [listing 2 of 2 here] has a Ratio IC50 [1] of 29.1.

Compound `CC(C)CN1C(=O)CS[C@@H]1c1cnccc1-c1ccc(C(F)(F)F)cc1` (stereo in doubt; 58) [listing 1 of 2 here] has an IC50 [2] of 12.9 µM and an IC50 [3] of 3.32 µM.

`CC(C)CN1C(=O)COC1c1cnccc1-c1ccc(Br)cc1` (stereo unspecified) showed a Ratio IC50 [1] of 6.6, an IC50 [2] of 29.3 µM and an IC50 [3] of 4.42 µM.

`Fc1ccc(C(c2ccc(F)cc2)N2CCN(C/C=C/c3ccccc3)CC2)cc1` [FLUNARIZINE] gave a Ratio IC50 [1] of 0.5, an IC50 [2] of 0.78 µM and an IC50 [3] of 1.67 µM.

Compound `Cc1ccc(-c2ncccc2C2SCC(=O)N2CC(C)C)cc1` (stereo unspecified) has a Ratio IC50 [1] of 6.4, an IC50 [2] of 12.5 µM and an IC50 [3] of 1.96 µM.

`CC(C)CN1C(=O)CSC1c1ccncc1-c1ccc(F)cc1` (stereo unspecified) showed a Ratio IC50 [1] of 2.8, an IC50 [2] of 11.7 µM and an IC50 [3] of 4.15 µM.

In the case of `Cc1ccc(-c2ccncc2[C@H]2SCC(=O)N2CC(C)C)cc1` (stereo in doubt; 61) [listing 2 of 2 here], the Ratio IC50 [1] is reported as 31.8.

Compound `CC(C)CN1C(=O)CS[C@@H]1c1cnccc1-c1ccc(C(F)(F)F)cc1` (stereo in doubt; 58) [listing 2 of 2 here] has a Ratio IC50 [1] of 3.9.

`O=C1CSC(c2cnccc2-c2ccc(Br)cc2)N1C1CC1` (stereo unspecified) gave a Ratio IC50 [1] of 3.6, an IC50 [2] of 4.69 µM and an IC50 [3] of 1.3 µM.

For `CC(C)CN1C(=O)CSC1c1cnccc1-c1ccc(Br)cc1` (stereo unspecified), the Ratio IC50 [1] was 12.8, the IC50 [2] was 8.41 µM and the IC50 [3] was 0.66 µM.

`CN(C)c1ccc(-c2cnccc2C2SCC(=O)N2C2CCCC2)cc1` (stereo unspecified) showed a Ratio IC50 [1] of 1.7, an IC50 [2] of 18.2 µM and an IC50 [3] of 10.7 µM.

`CC(C)CNC(=O)CC1SC(c2ccc(F)c(Br)c2)N(CCc2ccccn2)C1=O` (stereo unspecified) showed a Ratio IC50 [1] of 2.2, an IC50 [2] of 2.92 µM and an IC50 [3] of 1.34 µM.

Compound `Cc1ccc(-c2ccncc2[C@H]2SCC(=O)N2CC(C)C)cc1` (stereo in doubt; 60) [listing 2 of 2 here] has a Ratio IC50 [1] of 2.9.
